Here are results for two compounds from patent publication US12357680B2, “Inhibition of histone methyl transferases to treat cancer” (Albert-Ludwigs-Universitat Freiburg, priority 2018, dated 2025).

As a reminder, the IC50 is the point on the concentration scale where inhibition reaches its midpoint. As a reminder, the ΔTm is the shift of the melting midpoint relative to a reference.

Test [1] concerns the target T1, KMT9 (Homo sapiens (Human), UniProt Q9Y5N5). The experiment in a line: Microscale thermophoresis (MST) KMT9-binding. The conditions noted are these: His-tag labelled KMT9 20 nM; read-out: Binding affinity in MST. The procedure:
To determine the binding affinity of the compound to KMT9, microscale thermophoresis (MST) analysis was performed with a NanoTemper Monolith NT.115 instrument (NanoTemper Technologies GmbH). KMT9 was labelled with a RED-Tris-NTA labelling kit (NanoTemper Technologies GmbH) based on the manufacturer's instructions. Buffer including 25 mM HEPES (pH 7.5), 100 mM NaCl, 1 mM DTT and 0.05% Tween was used for the reaction buffer. Varying concentrations of the compound were titrated against His-tag labelled KMT9 proteins (20 nM). Samples were loaded into standard Capillaries (NanoTemper Technologies GmbH) and MST measurements were performed using 40% MST power and 100% LED power. For each set of binding experiments, MST measurement was carried out with Binding Affinity module in MO. Control program under Nano-RED Excitation. Datasets were processed with the MO. Affinity Analysis software (NanoTemper Technologies GmbH).
(MST reads how a fluorescent partner responds to local heating, with and without ligand.)

Test [2] deals with T1, KMT9. The experiment in a line: Methylation assay to test KMT9-inhibition ([3H]SAM, filter binding, scintillation). The test is classed as biochemical. Conditions: ETF1 or histone H4 substrate. The procedure: Methylation assays were performed to test inhibition of the KMT9 methyltransferase activity by compound 72b. To test the compound, 1 μL of the compound, dissolved in DMSO at different concentrations, was added to a 0.5 ml tube (Brand Gmbh&Co KG). Afterwards, 4 μL of assay buffer (50 mM BTP, 1 mM MgCl2, 1 mM DTT, 0.01% TX-100, pH 8.5) were added together with 10 μL of 2× solution of KMT9 diluted in assay buffer (final concentration 0.025-0.6 μM). The solutions were mixed and incubated for 20 min at room temperature, shaking at 300 rpm. Afterwards, 5 μL of 4× Protein-SAM mix was added (final concentrations: 5 μM ETF1 or histone H4, SAM: 1-2.5 μM (including 30% of radioactively labelled [3H]SAM)) to a final assay volume of 20 μL. The reaction mixtures were mixed and incubated in an Eppendorf thermomixer comfort for 2 h at 30° C., shaking at 300 rpm. The reaction was quenched using 5 μL of 50% trichloroacetic acid (TCA) in water, mixed and incubated for 5 min at room temperature without shaking. […] The scintillation signal was measured for 3×1 min using Tri-Carb 2910 TR (PerkinElmer) scintillation counter in [^3H] […]

The test system of test [3] is plurality of methyltransferases including DOT1L. Put plainly: Specificity across a plurality of methyltransferases. Conditions: 10-dose IC50 mode starting at 10 μM, 1 μM SAM. The test is classed as biochemical. The procedure: (§1) Compound 72b was further tested against a plurality of methyltransferases as described in the following. […] Reactions were carried out at 1 μM SAM. Curve fits were performed where the enzyme activities at the highest concentration of compounds were less than 65%. […] Compound 72b is referred to as KMI9542321 in the table below.

Test [4] deals with T1, KMT9. The experiment in a line: Methyltransferase panel, 10-dose IC50 mode. The test is classed as biochemical. The conditions noted are these: Substrate: Histone H4; 1 μM SAM; read-out: Compound IC50* (M) KMI9542321. The method, then: as §1
In test [5] the target is T1, KMT9. The experiment in a line: Thermal shift assay of KMT9 upon inhibitor binding. The conditions noted are these: thermal shift at 500 μM. The method, then:
For inhibitor testing, 1 μL of the compound, dissolved in DMSO at different concentrations, were added to a 96 well hard-shell PCR plate (Bio-Rad). Afterwards 4 μL of assay buffer (50 mM BTP, 1 mM MgCl2, 1 mM DTT, pH 8.5) were added, followed by 10 μL of 2×KMT9 (final concentration 2 μM) in assay buffer. After addition of 5 μL 4×SYPRO-Orange (Sigma) (final concentration 5×), the plate was spun for 1 min at 700 rpm, then shaken at 600 rpm for 15 minutes. After another […] spinning at 700 rpm for 1 min, measurement was performed using a CFX96 Touch Real-Time PCR Detection System (Bio-Rad). The plate was equilibrated at 20° C. for 4 minutes before heating gradually by 1° C. every 15 seconds until 95° C. After every step, the fluorescence was measured in FRET mode. The thermal shift at 500 μM is detected in K (Kelvin). For Example 9o, the thermal shift at 250 μM is detected in K (Kelvin). The obtained thermal shift obtained by adding the tested compound is shown in the table below as follows: shift ≤5 K is denoted with a “+”, shift >5 and ≤15 K is denoted with “++”, and shift >15 K is denoted with “+++”.

For another test, the target named is SUV39H2 (Homo sapiens (Human), UniProt Q9H5I1). The experiment in a line: Methyltransferase panel, 10-dose IC50 mode. The format is biochemical. Conditions: Substrate: Histone H3; 1 μM SAM; read-out: Control IC50*. The method, then: as §1
The target in a further test is SET1b Complex (Homo sapiens (Human), UniProt Q9UPS6). The experiment in a line: Methyltransferase panel, 10-dose IC50 mode. The test is classed as biochemical. The conditions noted are these: Substrate: Core Histone; 1 μM SAM; read-out: Control IC50*. The method, then: as §1
The target in another test is MLL3 Complex (Homo sapiens (Human), UniProt Q8NEZ4). Put plainly: Methyltransferase panel, 10-dose IC50 mode. The format is biochemical. The conditions noted are these: Substrate: Core Histone; 1 μM SAM; read-out: Control IC50*. The procedure:
as §1

A further test addresses DNMT3b (Homo sapiens (Human), UniProt Q9UBC3). Put plainly: Methyltransferase panel, 10-dose IC50 mode. The format is biochemical. Conditions: Substrate: Lambda DNA; 1 μM SAM; read-out: Control IC50*. The procedure:
as §1

The target of another test is GLP (Homo sapiens (Human), UniProt Q9H9B1). Put plainly: Methyltransferase panel, 10-dose IC50 mode. The conditions noted are these: Substrate: Histone H3 (1-21); 1 μM SAM; read-out: Control IC50*. The format is biochemical. The method, then:
as §1

The target in another test is SUV420H1TV2 (Homo sapiens (Human), UniProt Q4FZB7). The experiment in a line: Methyltransferase panel, 10-dose IC50 mode. The test is classed as biochemical. The conditions noted are these: Substrate: Nucleosomes; 1 μM SAM; read-out: Control IC50*. The method, then: as §1
Test [6] in a line: Methyltransferase panel, 10-dose IC50 mode. The format is biochemical. Conditions: Substrate: Core Histone; 1 μM SAM; read-out: Control IC50*. The method, then:
as §1

Another test addresses NRMT1 (Homo sapiens (Human), UniProt Q9BV86). The experiment in a line: Methyltransferase panel, 10-dose IC50 mode. The test is classed as biochemical. The conditions noted are these: Substrate: RCC1; 1 μM SAM; read-out: Control IC50*. The procedure:
as §1

The target of a further test is SMYD3 (Homo sapiens (Human), UniProt Q9H7B4). Put plainly: Methyltransferase panel, 10-dose IC50 mode. The test is classed as biochemical. Conditions: Substrate: MEKK2; 1 μM SAM; read-out: Control IC50*. The method, then: as §1
A further test has as its target NRMT2 (Homo sapiens (Human), UniProt Q5VVY1). Put plainly: Methyltransferase panel, 10-dose IC50 mode. The format is biochemical. The conditions noted are these: Substrate: RCC1; 1 μM SAM; read-out: Control IC50*. The procedure: as §1
The target of another test is PRMT6 (Homo sapiens (Human), UniProt Q96LA8). Put plainly: Methyltransferase panel, 10-dose IC50 mode. The test is classed as biochemical. The procedure: as §1
In a further test the target is NSD1 (Homo sapiens (Human), UniProt Q96L73). Put plainly: Methyltransferase panel, 10-dose IC50 mode. The conditions noted are these: Substrate: Nucleosomes; 1 μM SAM; read-out: Control IC50*. The test is classed as biochemical. The method, then: as §1
In a further test the target is PRMT3 (Homo sapiens (Human), UniProt O60678). The experiment in a line: Methyltransferase panel, 10-dose IC50 mode. The test is classed as biochemical. The conditions noted are these: Substrate: Histone H4; 1 μM SAM; read-out: Control IC50*. The method, then:
as §1

A further test deals with SET7/9 (Homo sapiens (Human), UniProt Q8WTS6). Put plainly: Methyltransferase panel, 10-dose IC50 mode. The format is biochemical. Conditions: Substrate: Core Histone; 1 μM SAM; read-out: Control IC50*. The procedure: as §1
Chain of SET7/9 (Q8WTS6 whole entry): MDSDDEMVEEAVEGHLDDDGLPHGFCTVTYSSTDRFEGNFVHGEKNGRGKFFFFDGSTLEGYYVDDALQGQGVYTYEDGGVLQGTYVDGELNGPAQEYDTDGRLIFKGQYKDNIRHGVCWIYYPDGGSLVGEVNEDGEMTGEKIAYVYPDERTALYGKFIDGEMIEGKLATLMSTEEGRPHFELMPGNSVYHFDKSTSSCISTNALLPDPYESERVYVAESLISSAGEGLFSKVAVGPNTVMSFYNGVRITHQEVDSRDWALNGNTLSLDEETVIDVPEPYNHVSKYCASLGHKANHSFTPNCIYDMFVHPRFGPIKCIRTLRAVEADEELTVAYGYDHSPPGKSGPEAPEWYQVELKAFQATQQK
A further test deals with MLL1 Complex (Homo sapiens (Human), UniProt Q03164). Put plainly: Methyltransferase panel, 10-dose IC50 mode. The format is biochemical. Conditions: Substrate: Nucleosomes; 1 μM SAM; read-out: Control IC50*. The procedure:
as §1

Another test has as its target DNMT3a (Homo sapiens (Human), UniProt Q9Y6K1). The experiment in a line: Methyltransferase panel, 10-dose IC50 mode. The test is classed as biochemical. Conditions: Substrate: Lambda DNA; 1 μM SAM; read-out: Control IC50*. The procedure:
as §1

In another test the target is DNMT3b/3L (Homo sapiens (Human), UniProt Q9UBC3). Put plainly: Methyltransferase panel, 10-dose IC50 mode. The conditions noted are these: Substrate: Lambda DNA; 1 μM SAM; read-out: Control IC50*. The test is classed as biochemical. The procedure:
as §1

Another test addresses SETD2 (Homo sapiens (Human), UniProt Q9BYW2). The experiment in a line: Methyltransferase panel, 10-dose IC50 mode. The conditions noted are these: Substrate: Nucleosomes; 1 μM SAM; read-out: Control IC50*. The test is classed as biochemical. The procedure: as §1

T1 sequence (Q9Y5N5 whole entry): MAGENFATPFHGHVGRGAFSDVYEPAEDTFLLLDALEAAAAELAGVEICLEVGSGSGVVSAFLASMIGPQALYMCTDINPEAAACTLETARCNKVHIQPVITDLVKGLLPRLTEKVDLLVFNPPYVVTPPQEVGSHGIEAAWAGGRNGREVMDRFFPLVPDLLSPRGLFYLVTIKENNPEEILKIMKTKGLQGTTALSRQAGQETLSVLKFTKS
T1 sequence (Q9UI30 whole entry partner): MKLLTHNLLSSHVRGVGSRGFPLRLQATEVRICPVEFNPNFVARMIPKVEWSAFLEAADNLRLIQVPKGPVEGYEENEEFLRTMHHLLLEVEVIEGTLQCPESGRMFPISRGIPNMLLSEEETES
Chain of SETD2 (Q9BYW2 whole entry): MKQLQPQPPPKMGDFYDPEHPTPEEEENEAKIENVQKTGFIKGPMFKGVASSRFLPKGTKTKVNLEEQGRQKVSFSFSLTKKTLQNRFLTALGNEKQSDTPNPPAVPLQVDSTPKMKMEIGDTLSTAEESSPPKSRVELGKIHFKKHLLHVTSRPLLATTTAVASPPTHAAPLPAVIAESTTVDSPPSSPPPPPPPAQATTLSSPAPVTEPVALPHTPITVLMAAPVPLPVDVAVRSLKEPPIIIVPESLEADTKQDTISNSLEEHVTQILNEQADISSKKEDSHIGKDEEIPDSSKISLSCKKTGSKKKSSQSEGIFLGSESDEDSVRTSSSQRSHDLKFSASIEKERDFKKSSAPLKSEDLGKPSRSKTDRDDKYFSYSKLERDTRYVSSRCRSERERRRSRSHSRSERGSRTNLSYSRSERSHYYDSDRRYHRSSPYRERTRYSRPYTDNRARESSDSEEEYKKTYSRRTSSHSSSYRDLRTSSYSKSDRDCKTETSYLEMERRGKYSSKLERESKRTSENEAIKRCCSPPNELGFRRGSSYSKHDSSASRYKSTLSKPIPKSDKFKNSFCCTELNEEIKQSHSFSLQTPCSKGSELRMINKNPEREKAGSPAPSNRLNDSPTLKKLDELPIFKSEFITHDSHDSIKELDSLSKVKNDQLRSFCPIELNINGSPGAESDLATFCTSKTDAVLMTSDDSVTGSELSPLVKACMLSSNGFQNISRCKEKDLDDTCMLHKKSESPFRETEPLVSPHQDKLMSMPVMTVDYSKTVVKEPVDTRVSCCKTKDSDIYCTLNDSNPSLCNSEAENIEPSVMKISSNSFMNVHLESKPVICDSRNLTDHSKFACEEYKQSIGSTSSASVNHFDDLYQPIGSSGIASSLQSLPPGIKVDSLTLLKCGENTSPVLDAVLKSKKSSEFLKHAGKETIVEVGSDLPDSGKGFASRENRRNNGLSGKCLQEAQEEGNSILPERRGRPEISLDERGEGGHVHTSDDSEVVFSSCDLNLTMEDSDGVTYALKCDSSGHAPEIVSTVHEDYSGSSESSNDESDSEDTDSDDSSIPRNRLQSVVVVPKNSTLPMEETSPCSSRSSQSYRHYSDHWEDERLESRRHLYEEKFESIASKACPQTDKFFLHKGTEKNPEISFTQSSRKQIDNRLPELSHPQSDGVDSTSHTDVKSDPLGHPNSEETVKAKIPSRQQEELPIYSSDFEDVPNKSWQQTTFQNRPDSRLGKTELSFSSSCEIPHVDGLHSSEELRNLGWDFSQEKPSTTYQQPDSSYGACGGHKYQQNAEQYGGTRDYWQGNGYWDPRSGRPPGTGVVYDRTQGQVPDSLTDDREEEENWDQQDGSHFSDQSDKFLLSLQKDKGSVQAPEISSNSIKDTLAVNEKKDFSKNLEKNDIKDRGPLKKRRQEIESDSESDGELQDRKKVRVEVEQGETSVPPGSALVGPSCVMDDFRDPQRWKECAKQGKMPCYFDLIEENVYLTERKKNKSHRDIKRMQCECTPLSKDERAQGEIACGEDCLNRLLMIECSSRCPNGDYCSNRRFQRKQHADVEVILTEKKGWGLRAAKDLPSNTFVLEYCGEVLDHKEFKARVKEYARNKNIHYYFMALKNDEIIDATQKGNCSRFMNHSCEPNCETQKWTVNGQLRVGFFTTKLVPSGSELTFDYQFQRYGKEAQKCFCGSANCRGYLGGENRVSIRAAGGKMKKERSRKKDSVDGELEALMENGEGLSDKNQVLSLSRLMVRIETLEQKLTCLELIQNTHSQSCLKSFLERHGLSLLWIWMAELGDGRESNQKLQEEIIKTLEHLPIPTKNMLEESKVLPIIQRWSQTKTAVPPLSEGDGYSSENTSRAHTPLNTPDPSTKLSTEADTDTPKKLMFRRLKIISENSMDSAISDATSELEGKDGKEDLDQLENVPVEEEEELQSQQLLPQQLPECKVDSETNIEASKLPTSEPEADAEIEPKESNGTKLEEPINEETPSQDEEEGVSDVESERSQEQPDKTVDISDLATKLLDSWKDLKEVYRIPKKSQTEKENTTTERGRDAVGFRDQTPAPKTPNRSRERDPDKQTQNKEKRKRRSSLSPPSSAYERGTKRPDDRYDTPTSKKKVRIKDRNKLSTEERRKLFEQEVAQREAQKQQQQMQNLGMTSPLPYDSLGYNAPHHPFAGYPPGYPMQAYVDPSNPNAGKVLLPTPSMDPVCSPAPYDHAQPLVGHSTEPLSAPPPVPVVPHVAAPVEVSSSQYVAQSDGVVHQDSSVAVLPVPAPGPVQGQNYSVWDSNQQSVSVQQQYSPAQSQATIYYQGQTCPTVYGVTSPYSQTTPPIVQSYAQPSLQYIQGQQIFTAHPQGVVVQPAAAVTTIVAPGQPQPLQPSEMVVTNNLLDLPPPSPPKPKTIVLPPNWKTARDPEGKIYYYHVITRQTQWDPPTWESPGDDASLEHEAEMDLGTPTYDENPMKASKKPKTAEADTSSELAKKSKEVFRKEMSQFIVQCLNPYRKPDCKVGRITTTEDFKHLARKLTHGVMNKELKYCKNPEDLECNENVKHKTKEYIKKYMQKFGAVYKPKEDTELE
Chain of NRMT2 (Q5VVY1 whole entry): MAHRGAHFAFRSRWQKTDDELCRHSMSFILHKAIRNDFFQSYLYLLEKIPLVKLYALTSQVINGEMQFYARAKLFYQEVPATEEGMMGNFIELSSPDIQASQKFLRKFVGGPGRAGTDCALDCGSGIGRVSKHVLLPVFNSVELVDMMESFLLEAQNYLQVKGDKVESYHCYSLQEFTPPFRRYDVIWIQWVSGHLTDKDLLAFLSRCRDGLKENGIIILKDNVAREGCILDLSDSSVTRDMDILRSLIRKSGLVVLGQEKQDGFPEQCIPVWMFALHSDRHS
Chain of GLP (Q9H9B1 whole entry): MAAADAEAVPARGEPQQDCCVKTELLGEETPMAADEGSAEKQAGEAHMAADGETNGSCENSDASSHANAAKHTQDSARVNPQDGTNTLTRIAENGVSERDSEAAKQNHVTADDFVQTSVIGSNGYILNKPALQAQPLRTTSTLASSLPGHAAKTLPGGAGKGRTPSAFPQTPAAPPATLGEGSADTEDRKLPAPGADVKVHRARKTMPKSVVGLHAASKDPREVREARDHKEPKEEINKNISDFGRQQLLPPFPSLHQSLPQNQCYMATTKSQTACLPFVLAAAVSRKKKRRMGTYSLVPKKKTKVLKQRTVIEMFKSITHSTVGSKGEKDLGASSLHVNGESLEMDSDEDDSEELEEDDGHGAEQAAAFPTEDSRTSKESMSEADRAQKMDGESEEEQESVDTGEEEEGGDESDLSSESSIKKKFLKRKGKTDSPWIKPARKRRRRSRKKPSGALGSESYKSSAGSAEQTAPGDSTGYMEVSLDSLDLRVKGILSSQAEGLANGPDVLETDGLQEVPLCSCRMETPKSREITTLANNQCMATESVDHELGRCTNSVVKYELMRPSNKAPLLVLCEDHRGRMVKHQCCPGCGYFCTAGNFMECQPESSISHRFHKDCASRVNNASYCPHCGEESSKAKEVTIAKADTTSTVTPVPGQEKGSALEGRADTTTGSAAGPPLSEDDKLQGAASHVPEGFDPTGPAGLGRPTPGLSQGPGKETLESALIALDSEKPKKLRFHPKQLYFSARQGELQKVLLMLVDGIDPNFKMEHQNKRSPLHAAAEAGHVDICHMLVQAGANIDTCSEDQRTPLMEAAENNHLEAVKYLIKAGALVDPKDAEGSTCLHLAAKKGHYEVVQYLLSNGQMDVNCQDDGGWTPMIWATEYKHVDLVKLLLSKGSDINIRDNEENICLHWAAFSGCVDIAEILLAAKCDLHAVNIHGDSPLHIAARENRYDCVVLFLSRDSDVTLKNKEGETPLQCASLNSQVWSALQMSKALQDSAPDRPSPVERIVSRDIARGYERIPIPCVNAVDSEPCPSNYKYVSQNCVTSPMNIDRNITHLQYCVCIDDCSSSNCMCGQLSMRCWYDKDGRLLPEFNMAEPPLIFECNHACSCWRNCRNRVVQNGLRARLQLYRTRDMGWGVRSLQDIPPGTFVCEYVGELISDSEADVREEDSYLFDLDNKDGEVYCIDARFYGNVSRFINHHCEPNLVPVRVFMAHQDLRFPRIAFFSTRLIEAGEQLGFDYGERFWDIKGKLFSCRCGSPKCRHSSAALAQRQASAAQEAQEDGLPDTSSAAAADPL
Chain of NRMT1 (Q9BV86 whole entry): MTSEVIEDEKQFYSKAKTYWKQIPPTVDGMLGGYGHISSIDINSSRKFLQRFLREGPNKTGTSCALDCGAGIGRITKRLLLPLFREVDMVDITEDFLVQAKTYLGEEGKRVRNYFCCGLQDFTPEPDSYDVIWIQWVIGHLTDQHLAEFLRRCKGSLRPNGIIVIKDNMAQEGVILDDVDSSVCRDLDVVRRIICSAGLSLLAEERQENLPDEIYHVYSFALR

In the case of `CNc1ncnc2c1ccn2[C@@H]1C[C@H](CN(CCCNCCc2ccccc2)CC[C@H](N)C(=O)O)[C@@H](O)[C@H]1O` [Compound 72b, (S)-2-amino-4-((((1R,2R,3S,4R)-2,3-dihydroxy-4-(4-(methylamino)-7H-pyrrolo[2,3-d]pyrimidin-7-yl)cyclopentyl)methyl)(3-(phenethylamino)propyl)amino)butanoic acid], the Kd on KMT9 [1] was under 100 nM. Also, the IC50 is under 100 nM at KMT9 [2] and 2e-07 M at KMT9 [4]. Besides, the “specificity for KMT9-inhibition versus other methyltransferases” value in [3] is listed as “specific for KMT9-inhibition”. On KMT9 [5], the ΔTm at 500 µM fell in the range of 5 to 15 °C.

Regarding `Nc1ncnc2c1ncn2[C@@H]1O[C@H](CSCC[C@H](N)C(=O)O)[C@@H](O)[C@H]1O` [SAH, S-(5′-Adenosyl)-L-homocysteine], the concentration for half-maximal inhibition (IC50) came out at 102000 nM on SUV39H2; 5270 nM at SET1b Complex; 25400 nM at MLL3 Complex; 35.2 nM at DNMT3b; 1210 nM at GLP; 139000 nM on SUV420H1TV2. For the same compound, the IC50 stood at 26400 nM in test [6]; 1070 nM on NRMT1; 12900 nM on SMYD3; 643 nM at NRMT2; 199 nM against PRMT6; 4330 nM at NSD1. Further, the IC50 on PRMT3 was 1880 nM; at SET7/9, 281000 nM; at MLL1 Complex, 1170 nM; at DNMT3a, 329 nM; at DNMT3b/3L it was 32.1 nM; on SETD2, 4080 nM.
